According to US20240083839A1, “COMPOSITIONS AND METHODS FOR TREATING NEURODEGENERATIVE DISEASES AND DISORDERS” (The Regents of the University of California, priority 2020, published 2024):
Several values for one entry are separate records, joined by “and”; a condition that tells them apart may be missing. Equal entries are not always repeated.

How the values were obtained:
[1] = tested on: ApoE4 and RNA polymerase II binding to the SirT1 promoter; test: ChIP and real time PCR of SirT1 promoter binding in N2a-E4 cells; assay type: cell-based, mouse; conditions: 6 hour treatment (A03 50 μM), versus DMSO
Method: Cells were then fixed with formaldehyde, lysed with SDS buffer, and sonicated using a temperature-controlled Epishear sonication platform at −20° C. to obtain DNA fragments between 200-1000 bp. An EZ-ChIP kit (EMD Millipore) was then used for chromatin immunoprecipitation using anti-ApoE4 mAb (Novus Biologicals) and anti-RNA Polymerase II mAb (Millipore) antibodies. After ChIP crosslinks were reversed and purified ChIP DNA was then analyzed by real time quantitative PCR using SYBR green master mix (Thermo) in a CFX Connect Real-Time PCR Detection System (Bio-Rad) using primers to amplify the ApoE4 binding site in the mouse SirT1 promoter: 5′[…]3′ and 5′[…]3′ (amplicon size of 125 bp). The Signals from each sample were normalized with signal of the input followed by the delta-delta-Ct method and fold change calculated with respect to the vehicle (DMSO).

[2] = tested on: E4-AD mice; test: Oral treatment of ApoE4-expressing AD model mice (NOR, brain SirT1); assay type: in vivo, mouse; conditions: ApoE4:5×FAD-TR transgenic mice
Method: Prompted by the emerging importance of the associations between ApoE4 and the expression/protein levels of SirT1, high-throughput screening (HTS) of the UCLA compound library was performed using AlphaLISA to detect SirT1 levels in murine neuroblastoma cells stably transfected with ApoE4 (E4-N2a) to identify SirT1 enhancers. […] In the in vivo study, mice were treated orally at 40 mkd (20 mg/kg BID) for 56 days and underwent assessment of cognition in the Novel Object Recognition (NOR) testing paradigm.

[3] = tested on: SirT1 levels in N2a-E4 cells; test: SirT1 levels by AlphaLISA in ApoE4-transfected N2a cells; assay type: cell-based, murine
How it was run: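 SirT1 enhancers screened by AlphaLISA of SirT1 protein in murine N2a neuroblastoma cells stably transfected with ApoE4. E4-AD mice dosed orally at 40 mkd (20 mg/kg BID) for 56 days, then cognition tested by Novel Object Recognition.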

[4] = molecular target: PRMT8 (Homo sapiens, UniProt Q9NR22); test: Cell-free PRMT enzyme activity assay, PRMT8; assay type: biochemical; conditions: for PRMT8 inhibition: A03 at 5 μM
PRMT8, sequence (Q9NR22 whole entry, species assumed): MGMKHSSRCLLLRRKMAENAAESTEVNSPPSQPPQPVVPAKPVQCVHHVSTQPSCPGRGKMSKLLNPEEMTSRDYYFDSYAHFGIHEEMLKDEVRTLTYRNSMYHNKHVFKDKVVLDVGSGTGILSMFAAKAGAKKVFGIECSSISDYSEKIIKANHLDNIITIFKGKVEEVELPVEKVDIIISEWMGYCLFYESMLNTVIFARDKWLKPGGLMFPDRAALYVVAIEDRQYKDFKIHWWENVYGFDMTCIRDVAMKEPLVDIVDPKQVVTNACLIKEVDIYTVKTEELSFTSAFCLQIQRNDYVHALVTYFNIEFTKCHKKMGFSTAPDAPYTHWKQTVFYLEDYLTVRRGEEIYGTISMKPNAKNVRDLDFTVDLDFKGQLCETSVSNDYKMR
Text: (§1) Due both the sequence homology and functional similarity of PRMT family members, in follow-up experiments PRMT 1, 4, and 8 inhibitors as well as assays for inhibition by those PRMTs were used. […] This profile may be due to its binding to an allosteric site on the PRMT8 enzyme and needs further kinetic analysis. […] The mode & inhibition kinetics to be investigated in the renewal grant.
Testing of additional A03 analogs are ongoing. For affinity purification, DDL215 that was used through clicking to beads. […] An initial correlation between cell-free PRMT8 inhibition and neuronal SirT1 enhancement (in cells) at 5 μM was seen (FIG. 10B).

[5] = molecular target: PRMT1 (Homo sapiens, UniProt Q99873); test: Cell-free PRMT enzyme activity assay, PRMT1; assay type: biochemical; conditions: A03 at 5 μM
PRMT1, sequence (Q99873 whole entry, species assumed): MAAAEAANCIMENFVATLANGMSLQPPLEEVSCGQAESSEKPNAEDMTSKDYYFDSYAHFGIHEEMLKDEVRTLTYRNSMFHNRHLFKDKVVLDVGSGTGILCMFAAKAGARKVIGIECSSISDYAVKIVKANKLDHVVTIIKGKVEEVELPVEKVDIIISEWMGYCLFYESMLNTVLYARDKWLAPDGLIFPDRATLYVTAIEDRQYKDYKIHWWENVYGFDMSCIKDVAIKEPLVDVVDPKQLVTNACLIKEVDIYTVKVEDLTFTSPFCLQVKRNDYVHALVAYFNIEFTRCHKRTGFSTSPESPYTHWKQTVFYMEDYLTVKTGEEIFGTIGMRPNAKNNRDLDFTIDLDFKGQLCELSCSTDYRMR
Text: Due both the sequence homology and functional similarity of PRMT family members, in follow-up experiments PRMT 1, 4, and 8 inhibitors as well as assays for inhibition by those PRMTs were used. […] The mode & inhibition kinetics to be investigated in the renewal grant.

[6] = molecular target: T1, PRMT4 (Homo sapiens, UniProt Q86X55); test: Cell-free PRMT enzyme activity assay, PRMT4; assay type: biochemical; conditions: A03 at 5 μM
T1 sequence (Q86X55 1-608): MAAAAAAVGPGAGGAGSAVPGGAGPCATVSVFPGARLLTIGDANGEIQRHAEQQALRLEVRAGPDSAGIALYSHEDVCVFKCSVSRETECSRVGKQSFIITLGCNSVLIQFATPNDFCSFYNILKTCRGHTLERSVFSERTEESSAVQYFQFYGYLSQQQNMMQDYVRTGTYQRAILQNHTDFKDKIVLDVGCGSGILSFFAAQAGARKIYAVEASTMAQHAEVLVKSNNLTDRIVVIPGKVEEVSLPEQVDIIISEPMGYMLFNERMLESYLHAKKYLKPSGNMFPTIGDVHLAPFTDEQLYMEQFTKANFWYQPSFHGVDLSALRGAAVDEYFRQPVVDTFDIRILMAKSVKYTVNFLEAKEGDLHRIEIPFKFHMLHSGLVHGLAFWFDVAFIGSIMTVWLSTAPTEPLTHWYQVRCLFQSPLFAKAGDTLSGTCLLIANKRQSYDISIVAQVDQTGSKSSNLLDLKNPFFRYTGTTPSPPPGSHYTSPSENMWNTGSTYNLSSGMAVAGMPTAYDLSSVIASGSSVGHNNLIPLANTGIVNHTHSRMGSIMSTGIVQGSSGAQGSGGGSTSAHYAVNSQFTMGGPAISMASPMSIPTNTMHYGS
Text: as §1

[7] = tested on: PRMT8 protein levels in E4-N2a cells; test: Immunoblot of PRMT8 protein levels in E4-N2a cells; assay type: cell-based, murine; conditions: 10 μM
Text: as §1

[8] = tested on: SirT1 mRNA; test: SirT1 mRNA level in N2a-E4 cells; assay type: cell-based, mouse; conditions: 10 hour time point
[9] = tested on: SirT1 levels in SH-SY5Y cells; test: SirT1 in SH-SY5Y cells transiently transfected with ApoE4; assay type: cell-based, human
[10] = PAMPA

| SMILES | ApoE4 binding to the SirT1 promoter [1] | RNA polymerase binding to the SirT1 promoter [1] | SirT1 mRNA levels in the brain [2] | SirT1 SOμM [3] | SirT1 SμM [3] | EC50 ([3]; Mus musculus, E4-N2a cells, AlphaLISA, read-out: SirT1 increase EC50) | SirT1 increase ([3]; N2a-E4 cells) | PRMT8 inhibition, ranking ([4]; cell-free assay, 0.25 μM) | PRMT8 inhibition ([4]; cell-free assay) | IC50 ([4]; cell-free assay, read-out: PRMT8 inhibition IC50) | dose at maximum of PRMT8 inhibition dose response ([4]; hormetic profile, plateau up to 10 μM) | PRMT1 inhibition [5] | PRMT4 inhibition [6] | PRMT8 protein levels [7] | SirT1 mRNA level higher than DMSO control [8] | SirT1 increase [9] | PAMPA [10] |
| --- | --- | --- | --- | --- | --- | --- | --- | --- | --- | --- | --- | --- | --- | --- | --- | --- | --- |
| CC(N)C(=O)OC(C)(C)Cc1ccncc1 (stereo not drawn) [MP48] | decreased ApoE4 | increased RNA polymerase binding | increase SirT1 mRNA levels |  |  |  |  |  |  |  |  |  |  |  |  |  |  |
| CC(N)C(=O)OC(C)(C)Cc1ccc(Cl)cc1 (stereo not drawn) [A03, alaproclate] | pronounced decrease | increased binding |  | C (C = 100% increase versus control) | A (A >20%) | ~2.3 µM | increased SirT1 in a dose dependent fashion | greatest inhibition | inhibit PRMT8 | ~0.125 µM | 0.25 µM | not PRMT1 or 4 | not PRMT1 or 4 | does not alter PRMT8 protein levels | 12% | SirT1 increases similar to those seen in the E4-N2a cells | 3.9 and 4.04 |
| CC(C)Oc1ccc(-c2c[nH]cc2CN(C)CCN)cc1 [MS23] |  |  |  |  |  |  |  |  | inhibits all 3 enzymes |  |  |  | inhibits all 3 enzymes |  |  |  |  |
